Experimental data reported in patent US12077503B2, “Substituted cyclic amides and their use as herbicides” (FMC CORPORATION, priority 2015, dated 2024).

Columns and labels:
Experiment in all cases: Test A preemergence
Type in all cases: in vivo
[1] = system: ragweed (common ragweed, Ambrosia elatior); details: Ambrosia artemisiifolia, pre-emergence, 240 h, preemergence, 0 to 100 scale where 0 is no effect and 100 is complete control, read-out: Ragweed plant response rating; for pest or weed control at 125 g/ha: 125 g ai/ha, visual injury rating, approximately 10 d; for pest or weed control at 500 g/ha: 500 g ai/ha
Method in brief: (§1)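 Each rating is a visual injury score from 0 to 100 given about 10 d after treatment, judged against untreated controls kept alongside in the greenhouse. In loam soil–sand blend, seeds got a preemergence directed soil spray, while postemergence plants were 2 to 10 cm tall at spraying.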

[2] = system: ryegrass, Italian (Italian ryegrass, Lolium multiflorum); details: Lolium multiflorum, pre-emergence, 240 h, preemergence, 0 to 100 scale where 0 is no effect and 100 is complete control, read-out: Ryegrass, Italian plant response rating; for pest or weed control at 125 g/ha: 125 g ai/ha, visual injury rating, approximately 10 d; for pest or weed control at 500 g/ha: 500 g ai/ha
Method in brief: as §1

[3] = system: barnyardgrass (Echinochloa crus-galli); details: Echinochloa crus-galli, pre-emergence, 240 h, preemergence, 0 to 100 scale where 0 is no effect and 100 is complete control, read-out: Barnyardgrass plant response rating; for pest or weed control at 125 g/ha: 125 g ai/ha, visual injury rating, approximately 10 d; for pest or weed control at 500 g/ha: 500 g ai/ha
Method in brief: as §1

Kochia (Kochia scoparia) = details: Bassia scoparia, pre-emergence, 240 h, preemergence, 0 to 100 scale where 0 is no effect and 100 is complete control, read-out: Kochia plant response rating; for pest or weed control at 125 g/ha: 125 g ai/ha, visual injury rating, approximately 10 d; for pest or weed control at 500 g/ha: 500 g ai/ha
Method in brief: as §1

[4] = system: pigweed (Amaranthus retroflexus); details: Amaranthus retroflexus, pre-emergence, 240 h, preemergence, 0 to 100 scale where 0 is no effect and 100 is complete control, read-out: Pigweed plant response rating; for pest or weed control at 125 g/ha: 125 g ai/ha, visual injury rating, approximately 10 d; for pest or weed control at 500 g/ha: 500 g ai/ha
[5] = system: giant foxtail (Setaria faberii); details: Setaria faberi, pre-emergence, 240 h, preemergence, 0 to 100 scale where 0 is no effect and 100 is complete control, read-out: Foxtail, Giant plant response rating; for pest or weed control at 125 g/ha: 125 g ai/ha, visual injury rating, approximately 10 d; for pest or weed control at 500 g/ha: 500 g ai/ha
Method in brief: as §1

Row | SMILES | pest or weed control at 125 g/ha [1] [%] | pest or weed control at 500 g/ha [1] [%] | pest or weed control at 125 g/ha [2] [%] | pest or weed control at 500 g/ha [2] [%] | pest or weed control at 125 g/ha [3] [%] | pest or weed control at 500 g/ha [3] [%] | pest or weed control at 125 g/ha (Kochia (Kochia scoparia)) [%] | pest or weed control at 500 g/ha (Kochia (Kochia scoparia)) [%] | pest or weed control at 125 g/ha [4] [%] | pest or weed control at 500 g/ha [4] [%] | pest or weed control at 125 g/ha [5] [%] | pest or weed control at 500 g/ha [5] [%]
1 | N#Cc1cc([C@H]2CNC(=O)[C@]2(O)C(=O)Nc2ccccc2F)ccc1F [Compound 1200] | 0 | 0 | 0 | 0 | 0 | 0 | 0 | 0 | 0 | 0 | 0 | 0
2 | CSc1ccccc1NC(=O)[C@H]1C(=O)NC[C@@H]1c1ccc(F)c(C#N)c1 [Compound 1201] | 60 | 70 | 0 | 0 | 0 | 70 | 30 | 70 | 20 | 70 | 70 | 80
3 | CN1C[C@H](c2ccc3c(c2)OC(F)(F)O3)[C@@H](C(=O)Nc2ccc(F)c(F)c2F)C1=O [Compound 1204] | 90 | 90 | 70 | 90 | 90 | 90 | 80 | 80 | 70 | 100 | 90 | 90
4 | COc1cc(C(F)(F)F)ccc1[C@H]1CN(C)C(=O)[C@@H]1C(=O)Nc1cccc(F)c1C [Compound 1205] | 0 | 0 | 40 | 70 | 90 | 90 | 30 | 30 | 0 | 30 | 100 | 100
5 | Cc1c(F)cccc1NC(=O)[C@H]1C(=O)N(C)C[C@@H]1c1ccc(F)c(Br)c1 [Compound 1211] | 50 | 50 | 50 | 80 | 100 | 100 | 20 | 70 | 50 | 70 | 100 | 100
6 | Cc1c(F)cccc1NC(=O)[C@H]1C(=O)N(C)C[C@@H]1c1ccc(OC(F)F)cc1 [Compound 1213] | 50 | 70 | 20 | 70 | 100 | 100 | 70 | 80 | 50 | 80 | 100 | 100
7 | CN1C[C@H](c2cc(F)cc(C(F)(F)F)c2)[C@@H](C(=O)Nc2cccc(F)c2F)C1=O [Compound 1214] | 0 | 70 | 60 | 90 | 90 | 90 | 50 | 60 | 60 | 70 | 90 | 90
8 | COc1ccc([C@H]2CN(C)C(=O)[C@@H]2C(=O)Nc2ccccc2F)c(OC)c1 [Compound 1215] | 0 | 0 | 0 | 0 | 90 | 100 | 0 | 90 | 0 | 0 | 60 | 90
9 | COc1cc([C@H]2CN(C)C(=O)[C@@H]2C(=O)Nc2ccccc2F)cc(OC)c1OC [Compound 1217] | 0 | 0 | 0 | 0 | 90 | 100 | 0 | 0 | 0 | 0 | 90 | 100
10 | Cc1ccc([C@H]2CCN(C)C(=O)[C@@H]2C(=O)Nc2cccc(F)c2F)cc1 [Compound 1220] | 30 | 40 | 30 | 50 | 90 | 90 | 40 | 50 | 20 | 40 | 90 | 90
11 | CN1CC[C@H](c2ccc(C(F)(F)F)cc2)[C@@H](C(=O)Nc2cccc(F)c2F)C1=O [Compound 1225] | 50 | 60 | 20 | 40 | 90 | 90 | 60 | 70 | 30 | 50 | 90 | 90
12 | CSc1ccccc1NC(=O)[C@H]1C(=O)N(C)C[C@@H]1c1cccc(C)c1 [Compound 1232] | 60 | 80 | 20 | 60 | 90 | 90 | 70 | 80 | 70 | 90 | 90 | 90
13 | CN1C[C@H](c2ccc(F)c(Br)c2)[C@@H](C(=O)Nc2cccc(F)c2F)C1=O [Compound 1234] | 40 | 60 | 40 | 80 | 100 | 100 | 70 | 80 | 70 | 90 | 100 | 100
14 | O=C1NC[C@H](c2ccc(C(F)(F)F)cc2)C1C(=O)Nc1ccccc1CO (stereo partly drawn) [Compound 1242] | 0 | 0 | 0 | 0 | 20 | 60 | 0 | 0 | 0 | 0 | 30 | 80
